pIC50: −log10 of the molar value.
Experiments:
GH3 = assay: Compound was evaluated for toxicity against GH3 cells; type: functional, cell-based; details: Rattus norvegicus
HeLa = assay: Compound was evaluated for toxicity against HeLa S3 cells; type: functional, cell-based; details: Homo sapiens

C[C@]12CC[C@@H]3c4ccc(O)cc4CC[C@H]3[C@@H]1CC[C@@]2(O)[C@H]1CO1
pIC50 (GH3): 5.26 | pIC50 (HeLa): 5.19

C[C@]12CC[C@@H]3c4ccc(O)cc4CC[C@H]3[C@@H]1CC[C@@]2(O)[C@@H]1CO1
pIC50 (GH3): 4.75 | pIC50 (HeLa): 4.73

C[C@]12CC[C@@H]3c4ccc(OC(=O)N(CCCl)CCCl)cc4CC[C@H]3[C@@H]1CC[C@@H]2O [ESTRAMUSTINE]
pIC50 (HeLa): 5.47

C=C[C@@]12COC(=O)C(=C)[C@@H]1[C@H]1OC(=O)C(=C)[C@@H]1[C@@H](O)C2 [VERNOLEPIN]
pIC50 (GH3): 5.28 | pIC50 (HeLa): 5.46
